Measured values as given in patent US9839629B2, “Inhibitors of the renal outer medullary potassium channel” (Merck Sharp & Dohme Corp., priority 2013, dated 2017).

molecular target: T1, ROMK (Kir1.1) channel (Homo sapiens, UniProt P48048); assay: Thallium Flux Assay; assay type: cell-based
T1 sequence (P48048 1-391): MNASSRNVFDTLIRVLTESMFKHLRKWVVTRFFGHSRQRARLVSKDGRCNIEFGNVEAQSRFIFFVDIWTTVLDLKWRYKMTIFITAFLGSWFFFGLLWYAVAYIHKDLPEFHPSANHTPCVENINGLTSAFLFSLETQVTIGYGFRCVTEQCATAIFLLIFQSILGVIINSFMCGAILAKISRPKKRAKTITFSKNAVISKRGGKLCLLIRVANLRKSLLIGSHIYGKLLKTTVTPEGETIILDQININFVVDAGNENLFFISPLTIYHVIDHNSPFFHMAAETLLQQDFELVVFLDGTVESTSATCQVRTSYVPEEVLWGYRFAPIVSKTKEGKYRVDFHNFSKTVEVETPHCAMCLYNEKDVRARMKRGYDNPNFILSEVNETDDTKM
Method: A Thallium Flux Assay was performed on each of the final product compounds in the Examples. When the final product of an Example was an HCl salt, the salt was run in the Assay. This assay has been described previously; see, e.g., PCT Published Application WO 2013/062900.

IC50 [µM]	SMILES
0.038	CC1=C(N2CCC3(CCN(C[C@@H](O)c4ccc(-n5cnnn5)nc4C)CC3)CC2)COC1=O [Example 46, (S)-4-(9-(2-hydroxy-2-(2-methyl-6-(1H-tetrazol-1-yl)pyridin-3-yl)ethyl)-3,9-diazaspiro[5.5]undecan-3-yl)-3-methylfuran-2(5H)-one]
0.053	CO[C@@H]1CN(C2=C(C)C(=O)OC2)CCC12CCN(C[C@H](O)c1ccc3c(c1C)COC3=O)CC2 [Example 98, 5-{(1R)-1-hydroxy-2-[(7S)-7-methoxy-9-(4-methyl-5-oxo-2,5-dihydrofuran-3-yl)-3,9-diazaspiro[5.5]undec-3-yl]ethyl}-4-methyl-2-benzofuran-1(3H)-one]
0.042	Cc1c([C@@H](O)CN2CCC3(CC2)CCN(C2=CC(=O)OC2)C(C)C3)ccc2c1COC2=O (single isomer, unassigned) [Example 33]
0.098	Cc1cc(-n2cnnn2)cnc1[C@@H](O)CN1CCC2(CC1)CCN(C1=CC(=O)OC1)CC2 [Example 20, (S)-4-(9-(2-hydroxy-2-(3-methyl-5-(1H-tetrazol-1-yl)pyridin-2-yl)ethyl)-3,9-diazaspiro[5.5]undecan-3-yl)furan-2(5H)-one]
0.014	CC1=C(N2CCC3(CCN(C[C@H](O)c4ccc(-n5cnnn5)cc4F)CC3)CC2)COC1=O [Example 53, (R)-4-(9-(2-(2-fluoro-4-(1H-tetrazol-1-yl)phenyl)-2-hydroxyethyl)-3,9-diazaspiro[5.5]undecan-3-yl)-3-methylfuran-2(5H)-one]
0.065	Cc1nc(-n2cnnn2)ccc1[C@@H](O)CN1CCC2(CC1)CCN(C1=CC(=O)OC1)C(=O)O2 [Example 31, (R)-9-(2-hydroxy-2-(2-methyl-6-(1H-tetrazol-1-yl)pyridin-3-yl)ethyl)-3-(5-oxo-2,5-dihydrofuran-3-yl)-1-oxa-3,9-diazaspiro[5.5]undecan-2-one]
0.685	C[C@H]1Cc2cc([C@H](O)CN3CCC4(CC3)CCN(C3=CC(=O)OC3)CC4)ccc2C(=O)O1 [Example 12, (S)-6-((S)-1-hydroxy-2-(9-(5-oxo-2,5-dihydrofuran-3-yl)-3,9-diazaspiro[5.5]undecan-3-yl)ethyl)-3-methylisochroman-1-one]
0.115	O=C1C=C(N2CCC3(CCN(C(=O)Cc4cc(F)c(-n5cnnn5)cc4F)CC3)CC2)CO1 [Example 104, 4-(9-{[2,5-difluoro-4-(1H-tetrazol-1-yl)phenyl]acetyl}-3,9-diazaspiro[5.5]undec-3-yl)furan-2(5H)-one]
0.146	Cc1c([C@@H](O)CN2CCC3(CC2)CCN(C2=CC(=O)OCC2)CC3)ccc2c1COC2=O [Example 93, 5-{(1R)-1-hydroxy-2-[9-(6-oxo-3,6-dihydro-2H-pyran-4-yl)-3,9-diazaspiro[5.5]undec-3-yl]ethyl}-4-methyl-2-benzofuran-1(3H)-one]
0.443	O=C1C=C(N2CCC3(CCN(CC(O)c4cnc(-n5cnnn5)nc4)CC3)CC2)CO1 (stereo not drawn) [Example 15, 4-(9-(2-(2-(1H-tetrazol-1-yl)pyrimidin-5-yl)-2-hydroxyethyl)-3,9-diazaspiro[5.5]undecan-3-yl)furan-2(5H)-one]
0.016	O=C1C=C(N2CCC3(CCN(C[C@H](O)c4ccc(-n5cnnn5)nc4)CC3)CC2)CO1 [Example 18, (R)-4-(9-(2-(6-(1H-tetrazol-1-yl)pyridin-3-yl)-2-hydroxyethyl)-3,9-diazaspiro[5.5]undecan-3-yl)furan-2(5H)-one]
0.011	CC1=C(N2CCC3(CCN(C[C@H](O)c4ccc(-n5cnnn5)cc4C)CC3)CC2)COC1=O [Example 55, (R)-4-(9-(2-hydroxy-2-(2-methyl-4-(1H-tetrazol-1-yl)phenyl)ethyl)-3,9-diazaspiro[5.5]undecan-3-yl)-3-methylfuran-2(5H)-one]
0.688	Cc1c(N2CCC3(CCN(C[C@H](O)c4ccc(-n5cnnn5)cn4)CC3)CC2)c(=O)c1=O [Example 87, (S)-3-(9-(2-(5-(1H-tetrazol-1-yl)pyridin-2-yl)-2-hydroxyethyl)-3,9-diazaspiro[5.5]undecan-3-yl)-4-methylcyclobut-3-ene-1,2-dione]
0.016	CC1=C(N2CCC3(CCN(C[C@@H](O)c4ccc(-n5cnnn5)cc4)CC3)CC2)COC1=O [Example 50, (S)-4-(9-(2-(4-(1H-tetrazol-1-yl)phenyl)-2-hydroxyethyl)-3,9-diazaspiro[5.5]undecan-3-yl)-3-methylfuran-2(5H)-one]
0.117	CC1=C(N2CCC3(CCN(C[C@@H](O)c4cncc(-n5cnnn5)c4)CC3)CC2)COC1=O [Example 64, (S)-4-(9-(2-(5-(1H-tetrazol-1-yl)pyridin-3-yl)-2-hydroxyethyl)-3,9-diazaspiro[5.5]undecan-3-yl)-3-methylfuran-2(5H)-one]
0.07	CC1=C(N2CCC3(CCN(C[C@H](O)c4ccc(-n5cnnn5)cn4)CC3)CC2)COC1=O [Example 51, (S)-4-(9-(2-(5-(1H-tetrazol-1-yl)pyridin-2-yl)-2-hydroxyethyl)-3,9-diazaspiro[5.5]undecan-3-yl)-3-methylfuran-2(5H)-one]
0.246	O=C1C=C(N2CCC3(CCN(C(=O)Cc4cnc(-n5cnnn5)c(F)c4)CC3)CC2)CO1 [Example 101, 4-(9-{[5-fluoro-6-(1H-tetrazol-1-yl)pyridin-3-yl]acetyl}-3,9-diazaspiro[5.5]undec-3-yl)furan-2(5H)-one]
0.034	Cc1c(N2CCC3(CCN(C[C@@H](O)c4ccc(-n5cnnn5)nc4)CC3)CC2)c(=O)c1=O [Example 82, (S)-3-(9-(2-(6-(1H-tetrazol-1-yl)pyridin-3-yl)-2-hydroxyethyl)-3,9-diazaspiro[5.5]undecan-3-yl)-4-methylcyclobut-3-ene-1,2-dione]
0.049	Cc1nc(-n2cnnn2)ccc1[C@@H](O)CN1CCC2(CC1)CCN(C1=CC(=O)CC1)CC2 [Example 70, (R)-3-(9-(2-hydroxy-2-(2-methyl-6-(1H-tetrazol-1-yl)pyridin-3-yl)ethyl)-3,9-diazaspiro[5.5]undecan-3-yl)cyclopent-2-enone]
0.132	O=C1C=C(N2CCC3(CCN(C(=O)C4CCc5cc(-n6cnnn6)ncc54)CC3)CC2)CO1 (stereo not drawn) [Example 103, 4-(9-{[3-(1H-tetrazol-1-yl)-6,7-dihydro-5H-cyclopenta[c]pyridin-7-yl]carbonyl}-3,9-diazaspiro[5.5]undec-3-yl)furan-2(5H)-one]
0.14	Cc1c([C@@H](O)CN2CCC3(CC2)CCN(C2=CC(=O)OC2C)CC3)ccc2c1COC2=O (stereo partly drawn) [Example 37, 5-((1R)-1-hydroxy-2-(9-(2-methyl-5-oxo-2,5-dihydrofuran-3-yl)-3,9-diazaspiro[5.5]undecan-3-yl)ethyl)-4-methylisobenzofuran-1(3H)-one]
0.011	CC1=C(N2CCC3(CCN(C[C@@H](O)c4ccc(-n5cnnn5)cc4C)CC3)CC2)COC1=O [Example 56, (S)-4-(9-(2-hydroxy-2-(2-methyl-4-(1H-tetrazol-1-yl)phenyl)ethyl)-3,9-diazaspiro[5.5]undecan-3-yl)-3-methylfuran-2(5H)-one]
0.033	CC1=C(N2CCC3(CCN(C[C@H](O)c4ccnc(-n5cnnn5)c4)CC3)CC2)COC1=O [Example 61, (R)-4-(9-(2-(2-(1H-tetrazol-1-yl)pyridin-4-yl)-2-hydroxyethyl)-3,9-diazaspiro[5.5]undecan-3-yl)-3-methylfuran-2(5H)-one]
0.049	Cc1c([C@@H](O)CN2CCC3(CC2)CCN(C2=CC(=O)OC2)C(C)C3)ccc2c1COC2=O (single isomer, unassigned) [Example 32]
0.039	CC1=C(N2CCC3(CCN(C[C@@H](O)c4ccnc(-n5cnnn5)c4)CC3)CC2)COC1=O [Example 62, (S)-4-(9-(2-(2-(1H-tetrazol-1-yl)pyridin-4-yl)-2-hydroxyethyl)-3,9-diazaspiro[5.5]undecan-3-yl)-3-methylfuran-2(5H)-one]
0.408	O=C1C=C(N2CCC3(CCN(C(=O)Cc4c(F)cc(-n5cnnn5)cc4F)CC3)CC2)CO1 [Example 100, 4-(9-{[2,6-difluoro-4-(1H-tetrazol-1-yl)phenyl]acetyl}-3,9-diazaspiro[5.5]undec-3-yl)furan-2(5H)-one]
0.141	Cc1c([C@@H](O)CN2CCC3(CC2)CCN(c2c(C4CC4)c(=O)c2=O)CC3)ccc2c1COC2=O [Example 80, (R)-3-cyclopropyl-4-(9-(2-hydroxy-2-(4-methyl-1-oxo-1,3-dihydroisobenzofuran-5-yl)ethyl)-3,9-diazaspiro[5.5]undecan-3-yl)cyclobut-3-ene-1,2-dione]
0.008	CC1=C(N2CCC3(CCN(C[C@@H](O)c4ccc(-n5cnnn5)cc4F)CC3)CC2)COC1=O [Example 54, (S)-4-(9-(2-(2-fluoro-4-(1H-tetrazol-1-yl)phenyl)-2-hydroxyethyl)-3,9-diazaspiro[5.5]undecan-3-yl)-3-methylfuran-2(5H)-one]
0.048	Cc1nc(-n2cnnn2)ccc1[C@@H](O)CN1CCC2(CC1)CCN(C1=CC(=O)OC1)C(=O)C2 [Example 26, (R)-9-(2-hydroxy-2-(2-methyl-6-(1H-tetrazol-1-yl)pyridin-3-yl)ethyl)-3-(5-oxo-2,5-dihydrofuran-3-yl)-3,9-diazaspiro[5.5]undecan-2-one]
0.013	CC1=C(N2CCC3(CCN(C[C@H](O)c4ccc5c(c4C)COC5=O)CC3)CC2)COC1=O [Example 7, (R)-5-(1-hydroxy-2-(9-(4-methyl-5-oxo-2,5-dihydrofuran-3-yl)-3,9-diazaspiro[5.5]undecan-3-yl)ethyl)-4-methylisobenzofuran-1(3H)-one]
